Reference: US7091202B2, “4-arylspirocycloalkyl-2-aminopyrimidine carboxamide KCNQ potassium channel modulators” (Bristol-Myers Squibb Company, priority 2004, dated 2006)

Each compound was assayed against T1, hQ23 (HEK-293 cell line stably transfected with one of the members of the KCNQ family) (Homo sapiens, UniProt O43525+O43526) (assay: Thallium flux assay for KCNQ channel blockers (FLIPR, BTC dye)). Details: Table 3; thallium flux, HEK-293.
T1 construct: expressed in transfected cells; host or cells: HEK-293, stably transfected
T1 sequence (O43526 whole entry): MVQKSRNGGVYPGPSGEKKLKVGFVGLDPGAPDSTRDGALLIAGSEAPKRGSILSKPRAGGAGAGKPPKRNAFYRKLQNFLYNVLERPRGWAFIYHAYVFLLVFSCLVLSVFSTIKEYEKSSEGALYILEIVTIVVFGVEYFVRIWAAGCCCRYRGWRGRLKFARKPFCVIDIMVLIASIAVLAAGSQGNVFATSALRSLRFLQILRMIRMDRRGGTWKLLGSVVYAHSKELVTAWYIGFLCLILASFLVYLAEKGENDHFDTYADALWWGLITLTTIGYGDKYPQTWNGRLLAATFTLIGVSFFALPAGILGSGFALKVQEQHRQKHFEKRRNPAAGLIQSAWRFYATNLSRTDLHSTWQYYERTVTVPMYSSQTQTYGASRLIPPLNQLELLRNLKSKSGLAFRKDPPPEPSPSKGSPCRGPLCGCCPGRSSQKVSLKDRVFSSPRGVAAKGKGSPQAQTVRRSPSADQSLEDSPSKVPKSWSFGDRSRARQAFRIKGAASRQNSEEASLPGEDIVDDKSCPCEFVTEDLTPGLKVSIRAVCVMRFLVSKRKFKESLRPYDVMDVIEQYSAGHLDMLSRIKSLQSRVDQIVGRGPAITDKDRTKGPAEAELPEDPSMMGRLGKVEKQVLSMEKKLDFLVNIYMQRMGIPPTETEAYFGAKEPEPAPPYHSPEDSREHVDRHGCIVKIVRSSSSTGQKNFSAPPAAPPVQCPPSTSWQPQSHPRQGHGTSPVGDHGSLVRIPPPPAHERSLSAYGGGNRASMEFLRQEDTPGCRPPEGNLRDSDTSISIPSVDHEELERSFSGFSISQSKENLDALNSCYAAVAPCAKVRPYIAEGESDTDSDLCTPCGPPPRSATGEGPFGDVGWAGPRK
T1 sequence (O43525 whole entry): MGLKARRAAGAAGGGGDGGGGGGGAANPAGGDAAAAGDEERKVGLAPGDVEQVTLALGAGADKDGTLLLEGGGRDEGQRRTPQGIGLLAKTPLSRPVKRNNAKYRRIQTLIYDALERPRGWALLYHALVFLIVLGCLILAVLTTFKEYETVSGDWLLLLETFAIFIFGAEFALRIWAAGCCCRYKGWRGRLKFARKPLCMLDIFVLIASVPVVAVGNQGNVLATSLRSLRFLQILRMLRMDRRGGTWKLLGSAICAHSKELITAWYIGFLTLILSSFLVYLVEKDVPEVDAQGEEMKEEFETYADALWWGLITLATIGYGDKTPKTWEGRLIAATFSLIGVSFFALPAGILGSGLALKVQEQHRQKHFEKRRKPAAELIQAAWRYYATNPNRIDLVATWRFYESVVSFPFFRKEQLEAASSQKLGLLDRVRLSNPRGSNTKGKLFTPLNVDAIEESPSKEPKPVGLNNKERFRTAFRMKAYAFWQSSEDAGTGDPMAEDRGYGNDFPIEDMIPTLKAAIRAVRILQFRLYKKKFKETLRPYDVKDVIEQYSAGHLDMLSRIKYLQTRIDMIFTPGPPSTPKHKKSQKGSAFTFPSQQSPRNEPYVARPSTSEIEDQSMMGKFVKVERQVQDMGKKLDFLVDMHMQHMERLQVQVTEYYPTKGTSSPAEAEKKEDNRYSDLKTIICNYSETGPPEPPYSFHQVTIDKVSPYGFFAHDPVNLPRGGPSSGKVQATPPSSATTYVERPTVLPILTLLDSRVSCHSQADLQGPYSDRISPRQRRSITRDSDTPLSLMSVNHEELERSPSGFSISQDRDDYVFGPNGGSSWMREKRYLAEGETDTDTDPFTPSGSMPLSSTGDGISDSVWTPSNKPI
Type: cell-based
Protocol: Thallium Flux Assay for KCNQ channel blockers. Approximately 20,000 cells/well of an HEK-293 cell line stably transfected with one of the members of the KCNQ family were plated into clear-bottom, black-walled, poly-D-lysine coated, 384 well assay plates in 20 μl/well of low chloride plating medium. Low chloride plating medium was composed of the following: sodium gluconate, 109 mM; potassium gluconate, 5.4 mM; hemi-calcium gluconate, 3.6 mM; magnesium sulfate, 0.8 mM; sodium bicarbonate, 26.2 mM; sodium phosphate monobasic, 1.2 mM; glutamine, 2 mM; glucose, 5 mM; HEPES (pH 7.3) 10 mM, 10× concentration of vitamins (Gibco/LifeTechnologies catalog #11120-052) and 1× concentration of amino acids (Gibco/LifeTechnologies catalog #11130-051).
Following overnight incubation in a 5% CO2 incubator at 37° C., the cells in the plates were loaded with 20 μl/well of a dye loading solution containing the acetomethoxy ester of the thallium-sensitive fluorescent dye BTC, BTC-AM (2 μM) and pluronic acid (0.02% w/v) in chloride free assay buffer. Chloride free assay buffer was composed of the following: sodium gluconate, 140 mM; potassium gluconate, 2.5 mM; hemi-calcium gluconate, 6 mM; hemi-magnesium gluconate, 2 mM; glucose, 5 mM; HEPES (pH 7.3), 10 mM.
Following incubation in the dye loading solution for from 45–90 min at room temperature, the dye loading solution was removed by aspiration and replaced with 40 μl/well of chloride free assay buffer.
Prior to addition to cell plates, test compound and standard compounds were dissolved in DMSO to 3 mM concentration. Compounds were then diluted from the 3 mM stock to 100-fold over the final assay concentration in DMSO. Finally, compounds in DMSO were diluted from 100-fold over the final assay concentration to 5-fold over the final assay concentration in chloride free assay buffer.
Ten μl/well of compounds at 5-fold over the final assay concentration were then added to the cell plates. This represents a 1:5 dilution, yielding the final test concentration. The wells used for test compounds were A1–P20. Wells A21–P22 contained a standard ‘blocker’ and a fully efficacious concentration (positive control). Wells A23–P24 contained chloride free assay buffer containing 1% DMSO (negative control).
Following addition of test compounds, the plates were loaded onto the Molecular Devices FLIPR. The 488 nm line of the argon laser was used to excite the BTC and the emission filter was a 540(+/−30) nm. Images were collected at 1 Hz. Ten seconds of baseline were collected and then the FLIPR was used to add 13 μl/well of a stimulus buffer composed of Tl2SO4, 25 mM; sodium gluconate, 30 mM; potassium sulfate, 50 mM; hemi-calcium gluconate, 6 mM; hemi-magnesium gluconate, 2 mM; glucose, 5 mM; HEPES (pH 7.3), 10 mM in chloride free assay buffer. Images were collected for an additional 60 seconds.
For data analysis, the amplitude of the average of the negative controls was subtracted from all wells. The amplitudes of the test compounds were then compared to the value of four standard deviations of the negative control wells. The lowest concentration of a test compound sufficient to generate a signal amplitude greater than or equal to four standard deviations from the amplitude of the negative controls was defined as the minimal active concentration.
For generating IC50 values, compounds were serially diluted in 1:3 volume increments to produce a 10 point concentration series. IC50 values were calculated by fitting the resulting amplitudes to a single-site logistic equation. IC50 was defined as the concentration of test compound required to yield 50% of the response of the positive control.
Work on `CC1CCN(c2ncc(C(=O)NCc3cc(F)cc(C(F)(F)F)c3)c(C3(c4ccc(Cl)cc4)CCC3)n2)CC1` [Example 67, 5-pyrimidinecarboxamide, 4-[1-(4-chlorophenyl)cyclobutyl]-N-[[3-fluoro-5-(trifluoromethyl)phenyl]methyl]-2-(4-methyl-1-piperidinyl)-] yielded an EC50 of 0.01 µM. With `CN(C)CCNc1ncc(C(=O)N(C)CCc2ccccc2)c(C2(c3ccc(Cl)cc3)CCC2)n1` [Example 55, 5-pyrimidinecarboxamide, 4-[1-(4-chlorophenyl)cyclobutyl]-2-[[2-(dimethylamino)ethyl]amino]-N-methyl-N-(2-phenylethyl)-] the EC50 was 0.321 µM. `CCN(CC)C(=O)c1cnc(NCCN(C)C)nc1C1(c2ccc(Cl)cc2)CCC1` [Example 53, 5-pyrimidinecarboxamide, 4-[1-(4-chlorophenyl)cyclobutyl]-2-[[2-(dimethylamino)ethyl]amino]-N,N-diethyl-] gave an EC50 of 0.558 µM.

Same assay, conditions: hQ23 cells, thallium flux
`CC(NC(=O)c1cnc(N2CCN(C)CC2)nc1C1(c2ccccc2)CCCC1)c1ccc(F)cc1` (stereo not shown) [Example 133, 5-pyrimidinecarboxamide, N-[1-(4-fluorophenyl)ethyl]-2-(4-methyl-1-piperazinyl)-4-(1-phenylcyclopentyl)-] was tested, and the EC50 was 0.442 µM. Work on `CCC(C)Nc1ncc(C(=O)NCc2ccc3c(c2)OCO3)c(C2(c3ccc(Cl)cc3)CCCC2)n1` (stereo not shown) [Example 155, 5-pyrimidinecarboxamide, N-(1,3-benzodioxol-5-ylmethyl)-4-[1-(4-chlorophenyl)cyclopentyl]-2-[(1-methylpropyl)amino]-] yielded an EC50 of 0.337 µM. With `CN(Cc1ccccc1)C(=O)c1cnc(NC2CCCC2)nc1C1(c2ccc(Cl)cc2)CCCC1` [Example 141, 5-pyrimidinecarboxamide, 4-[1-(4-chlorophenyl)cyclopentyl]-2-(cyclopentylamino)-N-methyl-N-(phenylmethyl)-] the EC50 was 0.183 µM. With `CN(C)CCNc1ncc(C(=O)NCc2ccc(Cl)cc2Cl)c(C2(c3ccc(Cl)cc3)CCCC2)n1` [Example 184, 5-pyrimidinecarboxamide, 4-[1-(4-chlorophenyl)cyclopentyl]-N-[(2,4-dichlorophenyl)methyl]-2-[[2-(dimethylamino)ethyl]amino]-] the EC50 was 0.709 µM. In the case of `CC1CCN(c2ncc(C(=O)N3CCCCC3)c(C3(c4ccccc4)CCCC3)n2)CC1` [Example 77, piperidine, 1-[[2-(4-methyl-1-piperidinyl)-4-(1-phenylcyclopentyl)-5-pyrimidinyl]carbonyl]-], the EC50 is reported as 0.164 µM. `CC1CCN(c2ncc(C(=O)NCc3ccc(Cl)c(Cl)c3)c(C3(c4ccccc4)CCCC3)n2)CC1` [Example 108, 5-pyrimidinecarboxamide, N-[(3,4-dichlorophenyl)methyl]-2-(4-methyl-1-piperidinyl)-4-(1-phenylcyclopentyl)-] gave an EC50 of 0.037 µM. `CC1CCC(Nc2ncc(C(=O)NCc3ccc(F)cc3F)c(C3(c4ccccc4)CCCC3)n2)CC1` (stereo not shown) [Example 116, 5-pyrimidinecarboxamide, N-[(2,4-difluorophenyl)methyl]-2-[(4-methylcyclohexyl)amino]-4-(1-phenylcyclopentyl)-] gave an EC50 of 0.085 µM. `CC1CCCN(c2ncc(C(=O)NCc3ccc4c(c3)OCO4)c(C3(c4ccccc4)CCCC3)n2)C1` (stereo not shown) [Example 92, 5-pyrimidinecarboxamide, N-(1,3-benzodioxol-5-ylmethyl)-2-(3-methyl-1-piperidinyl)-4-(1-phenylcyclopentyl)-] was tested, and the EC50 was 0.057 µM. Compound `CC1CCC(Nc2ncc(C(=O)NCc3ccc(Cl)cc3Cl)c(C3(c4ccc(Cl)cc4)CCCC3)n2)CC1` (stereo not shown) [Example 177, 5-pyrimidinecarboxamide, 4-[1-(4-chlorophenyl)cyclopentyl]-N-[(2,4-dichlorophenyl)methyl]-2-[(4-methylcyclohexyl)amino]-] has an EC50 of 0.055 µM. Work on `CC(NC(=O)c1cnc(N2CCCC2)nc1C1(c2ccc(Cl)cc2)CCCC1)c1cccc2ccccc12` (stereo not shown) [Example 158, 5-pyrimidinecarboxamide, 4-[1-(4-chlorophenyl)cyclopentyl]-N-[1-(1-naphthalenyl)ethyl]-2-(1-pyrrolidinyl)-] yielded an EC50 of 0.04 µM. In the case of `CN1CCN(c2ncc(C(=O)NCc3cccc4ccccc34)c(C3(c4ccc(Cl)cc4)CCCC3)n2)CC1` [Example 168, 5-pyrimidinecarboxamide, 4-[1-(4-chlorophenyl)cyclopentyl]-2-(4-methyl-1-piperazinyl)-N-(1-naphthalenylmethyl)-], the EC50 is reported as 0.497 µM. For `CC1CCC(Nc2ncc(C(=O)NCc3cccc4ccccc34)c(C3(c4ccccc4)CCCC3)n2)CC1` (stereo not shown) [Example 102, 5-pyrimidinecarboxamide, 2-[(4-methylcyclohexyl)amino]-N-(1-naphthalenylmethyl)-4-(1-phenylcyclopentyl)-], the EC50 was 0.194 µM. With `CC(NC(=O)c1cnc(NC2CCCC2)nc1C1(c2ccc(Cl)cc2)CCCC1)c1ccc(F)cc1` (stereo not shown) [Example 201, 5-pyrimidinecarboxamide, 4-[1-(4-chlorophenyl)cyclopentyl]-2-(cyclopentylamino)-N-[1-(4-fluorophenyl)ethyl]-] the EC50 was 0.592 µM. Work on `CN1CCN(c2ncc(C(=O)N(C)Cc3ccccc3)c(C3(c4ccc(Cl)cc4)CCCC3)n2)CC1` [Example 139, 5-pyrimidinecarboxamide, 4-[1-(4-chlorophenyl)cyclopentyl]-N-methyl-2-(4-methyl-1-piperazinyl)-N-(phenylmethyl)-] yielded an EC50 of 0.07 µM.

Same assay, conditions: hQ23 cells, thallium flux assay
In the case of `CC1CCCN(c2ncc(C(=O)NCc3ccc(F)cc3F)c(C3(c4ccc(F)cc4)CCCC3)n2)C1` (stereo not shown) [Example 269, 5-pyrimidinecarboxamide, N-[(2,4-difluorophenyl)methyl]-4-[1-(4-fluorophenyl)cyclopentyl]-2-(3-methyl-1-piperidinyl)-], the EC50 is reported as 0.056 µM. `O=C(NCc1ccc(Cl)cc1Cl)c1cnc(NC2CCCC2)nc1C1(c2ccc(F)cc2)CCCC1` [Example 266, 5-pyrimidinecarboxamide, 2-(cyclopentylamino)-N-[(2,4-dichlorophenyl)methyl]-4-[1-(4-fluorophenyl)cyclopentyl]-] showed an EC50 of 0.027 µM. `CC1CCC(Nc2ncc(C(=O)NCc3cc(F)cc(C(F)(F)F)c3)c(C3(c4ccc(F)cc4)CCCC3)n2)CC1` (stereo not shown) [Example 274, 5-pyrimidinecarboxamide, 4-[1-(4-fluorophenyl)cyclopentyl]-N-[[3-fluoro-5-(trifluoromethyl)phenyl]methyl]-2-[(4-methylcyclohexyl)amino]-] gave an EC50 of 0.029 µM. Compound `CC(NC(=O)c1cnc(N2CCCC2)nc1C1(c2ccc(F)cc2)CCCC1)c1cccc2ccccc12` (stereo not shown) [Example 242, 5-pyrimidinecarboxamide, 4-[1-(4-fluorophenyl)cyclopentyl]-N-[1-(1-naphthalenyl)ethyl]-2-(1-pyrrolidinyl)-] has an EC50 of 0.034 µM. For `CCC(C)Nc1ncc(C(=O)NCc2ccc(Cl)cc2Cl)c(C2(c3ccc(F)cc3)CCCC2)n1` (stereo not shown) [Example 265, 5-pyrimidinecarboxamide, N-[(2,4-dichlorophenyl)methyl]-4-[1-(4-fluorophenyl)cyclopentyl]-2-[(1-methylpropyl)amino]-], the EC50 was 0.138 µM. `O=C(NCc1ccc2c(c1)OCO2)c1cnc(N2CCCC2)nc1C1(c2ccc(F)cc2)CCCC1` [Example 235, 5-pyrimidinecarboxamide, N-(1,3-benzodioxol-5-ylmethyl)-4-[1-(4-fluorophenyl)cyclopentyl]-2-(1-pyrrolidinyl)-] gave an EC50 of 0.214 µM. In the case of `O=C(NCc1ccc(Cl)cc1Cl)c1cnc(NC2CC2)nc1C1(c2ccc(F)cc2)CCCC1` [Example 259, 5-pyrimidinecarboxamide, 2-(cyclopropylamino)-N-[(2,4-dichlorophenyl)methyl]-4-[1-(4-fluorophenyl)cyclopentyl]-], the EC50 is reported as 0.869 µM. In the case of `CC(NC(=O)c1cnc(N2CCCC2)nc1C1(c2ccc(F)cc2)CCCC1)c1ccc(F)cc1` (stereo not shown) [Example 282, 5-pyrimidinecarboxamide, 4-[1-(4-fluorophenyl)cyclopentyl]-N-[1-(4-fluorophenyl)ethyl]-2-(1-pyrrolidinyl)-], the EC50 is reported as 0.594 µM.
